Results from ChEMBL document CHEMBL1135452, “Side-chain homologation of nodulisporic acid: synthesis of potent new dienyl derivatives” (Bioorg Med Chem Lett, 2002).

Tested on: Pulicinae
Test: In vitro systemic flea efficacy using membrane feeding assay.
Format: functional

Row | SMILES | Activity [p.p.m.]
1 | C=C(C)[C@H]1C(=O)c2c3c(cc4c5c(n1c24)[C@@]1(C)C(CC[C@H]2[C@](C)(/C=C/C(C)=C/C(=O)NC(C)(C)C)[C@@H](O)CC[C@@]21C)C5)C1=CC(C)(C)OC(C)(C)C1[C@@H]3O (some centres not stated) | 10
2 | C=C(C)[C@H]1C(=O)c2c3c(cc4c5c(n1c24)[C@@]1(C)C(CC[C@H]2[C@](C)(/C=C/C=C/C(=O)NCC)[C@@H](O)CC[C@@]21C)C5)C1=CC(C)(C)OC(C)(C)C1[C@@H]3O (some centres not stated) | 1
3 | C=C(C)[C@H]1C(=O)c2c3c(cc4c5c(n1c24)[C@@]1(C)C(CC[C@H]2[C@](C)(/C=C/C=C/C(=O)OCc4ccccc4)[C@@H](O)CC[C@@]21C)C5)C1=CC(C)(C)OC(C)(C)C1[C@@H]3O (some centres not stated) | 10
4 | C=C(C)[C@H]1C(=O)c2c3c(cc4c5c(n1c24)[C@@]1(C)C(CC[C@H]2[C@](C)(/C=C/C=C/C(N)=O)[C@@H](O)CC[C@@]21C)C5)C1=CC(C)(C)OC(C)(C)C1[C@@H]3O (some centres not stated) | 1
5 | C=C(C)[C@H]1C(=O)c2c3c(cc4c5c(n1c24)[C@@]1(C)C(CC[C@H]2[C@](C)(/C=C/C=C(\OC)C(=O)NC(C)(C)C)[C@@H](O)CC[C@@]21C)C5)C1=CC(C)(C)OC(C)(C)C1C3 (some centres not stated) | > 10
6 | C=C(C)[C@H]1C(=O)c2c3c(cc4c5c(n1c24)[C@@]1(C)C(CC[C@H]2[C@](C)(/C=C/C=C/C(=O)NC(C)(C)C)[C@@H](O)CC[C@@]21C)C5)C1=CC(C)(C)OC(C)(C)C1[C@@H]3O (some centres not stated) | 1
7 | C=C(C)[C@H]1C(=O)c2c3c(cc4c5c(n1c24)[C@@]1(C)C(CC[C@H]2[C@](C)(/C=C/C(C)=C/C(=O)O)[C@@H](O)CC[C@@]21C)C5)C1=CC(C)(C)OC(C)(C)C1[C@@H]3O (some centres not stated) | 10
